{
  "source": "patent US20020119970A1",
  "about": "“Method for treating glaucoma IIB” (priority 2000, published 2002)",
  "origin": "cited, not measured here",
  "key": {"[1]": {"system": "Aged Rhesus monkeys", "details": "drug treated vs. control eye; baseline and pilocarpine-stimulated conditions; result referred to co-filed application \"Methods for Treating Glaucoma I\""}, "[2]": {"system": "Rhesus monkeys", "details": "accommodative responses to i.m. pilocarpine; result referred to co-filed application \"Methods for Treating Glaucoma I\""}},
  "data": [
    {"smiles": "Cc1sc[n+](CC(=O)c2ccccc2)c1C.[Cl-]", "note": "[4,5-dimethyl-3-(2-oxoethyl-phenethyl)thiazolium chloride]", "values": [
      {"measurement": "improvement in ophthalmologic function (fluid outflow facility)", "setting": "[1]", "result": "improvement has been illustrated"},
      {"measurement": "Improvement in accommodation", "setting": "[2]", "result": "Improvement in accommodation has been illustrated"}
    ]}
  ]
}
